From PMC3525792 (Bioorganic & medicinal chemistry letters, 2012)

Target: EGFP-hSERT (UniProt P31645+P42212, F64L/H231L/S65T)
Format: cell-based, human

`CCN(CC)c1ccc2c(-c3ccc(S(=O)(=O)NCCCCCC(=O)NCCC(=O)Nc4cccc(-c5ccc6c(c5)COC6(CCCN(C)C)c5ccc(F)cc5)c4)cc3S(=O)(=O)[O-])c3ccc(=[N+](CC)CC)cc-3oc2c1` (centres unmarked) [compound 8] was tested, and the “labeling of EGFP-SERT in live cells in the presence of paroxetine” value (20 nM 8, 37°C, preincubation with 1 μM paroxetine 30 min) was “no fluorescence was observed at the cell surface in the red channel” and the “labeling of EGFP-SERT in live cells” value (20 nM 8, 60 min at 37°C, HEK293 EGFP-hSERT, without paroxetine) was “labels SERT with high specificity”.
